# Starred links: 1 amine or outer side, 2 acyl side, 3 side chain; linkers in the order of their positions; H or OH if unused. Non-standard residues stand in square brackets, D forms with d. Residues, ends and D or L forms follow the SMILES beside them. Phe(4-(cis-4-COOH-cHex)) = N[C@@H](Cc1ccc([C@H]2CC[C@@H](C(=O)O)CC2)cc1)C(=O)O; dPro(4R-(4-pyridylmethyl)) = O=C(O)[C@H]1C[C@@H](Cc2ccncc2)CN1; Trp(βS-Me,4-F) = C[C@@H](c1c[nH]c2cccc(F)c12)[C@H](N)C(=O)O; Bip(4'-COOH) = N[C@@H](Cc1ccc(-c2ccc(C(=O)O)cc2)cc1)C(=O)O; Ala(1-bicyclo(1.1.1)pentyl) = N[C@@H](CC12CC(C1)C2)C(=O)O; X11 = O=C([C@H]1C[C@@H](Cc2ccc(F)c3ccccc23)CN1[*:1])[*:2]; dPro(4R-Bzl(4-F)) = O=C(O)[C@H]1C[C@@H](Cc2ccc(F)cc2)CN1; dPro(3S-(4-F-Bn)) = O=C(O)[C@@H]1NCC[C@@H]1Cc1ccc(F)cc1; X20 = O=C([C@H]1C[C@@H](Cc2ccc(Cl)cc2)CN1[*:1])[*:2]; X29 = O=C([C@H]1[C@@H](Cc2ccc(Cl)cc2)CCN1[*:1])[*:2]; X4 = O=C([C@H]1[C@@H](Cc2ccncc2)CCN1[*:1])[*:2]; Ala(pyrimidin-5-yl) = N[C@@H](Cc1cncnc1)C(=O)O; Phe(4-COOH) = N[C@@H](Cc1ccc(C(=O)O)cc1)C(=O)O; Ala(4-Pyridazinyl) = N[C@@H](Cc1ccnnc1)C(=O)O; Bip = N[C@@H](Cc1ccc(-c2ccccc2)cc1)C(=O)O; Pro(cis-4-F) = O=C(O)[C@@H]1C[C@H](F)CN1; X6 = O=C([C@H](Cc1ccncn1)N[*:1])[*:2]; cisHyp = O=C(O)[C@@H]1C[C@H](O)CN1; d(αMeD) = C[C@@](N)(CC(=O)O)C(=O)O; 3Pal = N[C@@H](Cc1cccnc1)C(=O)O; 4Pal = N[C@@H](Cc1ccncc1)C(=O)O; aThr = C[C@H](O)[C@H](N)C(=O)O; Dab = NCC[C@H](N)C(=O)O; Aib = CC(C)(N)C(=O)O
# Molecular target: T1, IL-1β (Homo sapiens, UniProt P01584)
# T1 construct: purchased BioLegend 579404
# Test: IL-6 assay in MRC5 cells: inhibition of IL-1β induced IL-6 secretion (AlphaLISA)
# Type: cell-based
# Conditions: inhibition of IL-1β induced IL-6 secretion in MRC5 cells; read-out: MRC5 IC50
# Method in brief: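 Compound was pre-incubated 1 h at ambient temperature with recombinant human IL-1β at 2λ EC80 before adding human lung fibroblast MRC5 cells (3000/well) in EMEM with 0.025% BSA. After overnight culture at 37 °C, 5% CO2, secreted IL-6 in conditioned medium was measured by AlphaLISA; IC50 from 4-parameter logistic fits.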
# T1 sequence (P01584 117-269): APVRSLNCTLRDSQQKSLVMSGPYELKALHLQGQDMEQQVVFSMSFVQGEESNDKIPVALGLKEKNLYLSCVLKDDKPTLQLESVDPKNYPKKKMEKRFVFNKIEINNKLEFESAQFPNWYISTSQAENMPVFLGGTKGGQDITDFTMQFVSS
row,SMILES,IC50
1,"C[C@@H](c1c[nH]c2cccc(F)c12)[C@@H]1NC(=O)[C@@H]2C[C@H](F)CN2C(=O)CNC(=O)[C@H](Cc2ccc(C(=O)O)cc2)NC(=O)[C@H](Cc2ccncc2)NC(=O)[C@H](Cc2ccc(-c3ccc(C(=O)O)cc3)cc2)NC(=O)[C@H]2C[C@@H](Cc3ccc(F)cc3)CN2C(=O)CNC(=O)[C@H](CCN)NC(=O)[C@H](CCC(N)=O)NC(=O)[C@H](Cc2ccnnc2)NC(=O)[C@@](C)(CC(=O)O)NC(=O)[C@H](Cc2c[nH]c3ccccc23)NC(=O)[C@H](CO)NC(=O)C(C)(C)NC1=O [Example 322] (cyclo([Bip(4'-COOH)][4Pal][Phe(4-COOH)]G[Pro(cis-4-F)][Trp(βS-Me,4-F)][Aib]SW[d(αMeD)][Ala(4-Pyridazinyl)]Q[Dab]G[dPro(4R-Bzl(4-F))]))",13 pM
2,"C[C@@H](c1c[nH]c2cccc(F)c12)[C@@H]1NC(=O)[C@@H]2C[C@H](F)CN2C(=O)CNC(=O)[C@H](Cc2ccc(C(=O)O)cc2)NC(=O)[C@H](Cc2ccncc2)NC(=O)[C@H](Cc2ccc(-c3ccc(C(=O)O)cc3)cc2)NC(=O)[C@H]2C[C@@H](Cc3ccc(F)cc3)CN2C(=O)CNC(=O)[C@H](CCN)NC(=O)[C@H](CCC(N)=O)NC(=O)[C@H](Cc2cccnc2)NC(=O)[C@@](C)(CC(=O)O)NC(=O)[C@H](Cc2c[nH]c3ccccc23)NC(=O)[C@H](CO)NC(=O)C(C)(C)NC1=O [Example 323] (cyclo([Bip(4'-COOH)][4Pal][Phe(4-COOH)]G[Pro(cis-4-F)][Trp(βS-Me,4-F)][Aib]SW[d(αMeD)][3Pal]Q[Dab]G[dPro(4R-Bzl(4-F))]))",12 pM
3,"C[C@@H](c1c[nH]c2cccc(F)c12)[C@@H]1NC(=O)[C@@H]2C[C@H](F)CN2C(=O)CNC(=O)[C@H](Cc2ccc(C(=O)O)cc2)NC(=O)[C@H](Cc2ccncc2)NC(=O)[C@H](Cc2ccc(-c3ccc(C(=O)O)cc3)cc2)NC(=O)[C@H]2C[C@@H](Cc3ccc(F)cc3)CN2C(=O)CNC(=O)[C@H](CCN)NC(=O)[C@H](CCC(N)=O)NC(=O)[C@H](Cc2ccncc2)NC(=O)[C@@](C)(CC(=O)O)NC(=O)[C@H](Cc2c[nH]c3ccccc23)NC(=O)[C@H](CO)NC(=O)C(C)(C)NC1=O [Example 324] (cyclo([Bip(4'-COOH)][4Pal][Phe(4-COOH)]G[Pro(cis-4-F)][Trp(βS-Me,4-F)][Aib]SW[d(αMeD)][4Pal]Q[Dab]G[dPro(4R-Bzl(4-F))]))",13 pM
4,"C[C@@H](c1c[nH]c2cccc(F)c12)[C@@H]1NC(=O)[C@@H]2C[C@H](O)CN2C(=O)CNC(=O)[C@H](Cc2ccc(C(=O)O)cc2)NC(=O)[C@H](Cc2ccncc2)NC(=O)[C@H](Cc2ccc(-c3ccc(C(=O)O)cc3)cc2)NC(=O)[C@H]2[C@@H](Cc3ccncc3)CCN2C(=O)CNC(=O)[C@H](CCN)NC(=O)[C@H](CCC(N)=O)NC(=O)[C@H](Cc2cncnc2)NC(=O)C(C)(C)NC(=O)[C@H](Cc2c[nH]c3ccccc23)NC(=O)[C@H](CO)NC(=O)C(C)(C)NC1=O [Example 325] (cyclo([Bip(4'-COOH)][4Pal][Phe(4-COOH)]G[cisHyp][Trp(βS-Me,4-F)][Aib]SW[Aib][Ala(pyrimidin-5-yl)]Q[Dab]G[X4]))",27 pM
5,"C[C@@H](c1c[nH]c2cccc(F)c12)[C@@H]1NC(=O)[C@@H]2C[C@H](F)CN2C(=O)CNC(=O)[C@H](Cc2ccc(C(=O)O)cc2)NC(=O)[C@H](Cc2ccncc2)NC(=O)[C@H](Cc2ccc(-c3ccc(C(=O)O)cc3)cc2)NC(=O)[C@H]2[C@@H](Cc3ccncc3)CCN2C(=O)CNC(=O)[C@H](CCN)NC(=O)[C@H](CCC(N)=O)NC(=O)[C@H](Cc2cncnc2)NC(=O)C(C)(C)NC(=O)[C@H](Cc2c[nH]c3ccccc23)NC(=O)[C@H](CO)NC(=O)C(C)(C)NC1=O [Example 326] (cyclo([Bip(4'-COOH)][4Pal][Phe(4-COOH)]G[Pro(cis-4-F)][Trp(βS-Me,4-F)][Aib]SW[Aib][Ala(pyrimidin-5-yl)]Q[Dab]G[X4]))",11 pM
6,"C[C@@H](c1c[nH]c2cccc(F)c12)[C@@H]1NC(=O)[C@@H]2C[C@H](F)CN2C(=O)CNC(=O)[C@H](Cc2ccc(C(=O)O)cc2)NC(=O)[C@H](Cc2ccncc2)NC(=O)[C@H](Cc2ccc(-c3ccc(C(=O)O)cc3)cc2)NC(=O)[C@H]2C[C@@H](Cc3ccc(F)c4ccccc34)CN2C(=O)CNC(=O)[C@H](CCN)NC(=O)[C@H](CCC(N)=O)NC(=O)[C@H](Cc2cncnc2)NC(=O)[C@@](C)(CC(=O)O)NC(=O)[C@H](Cc2c[nH]c3ccccc23)NC(=O)[C@H](CO)NC(=O)C(C)(C)NC1=O [Example 327] (cyclo([Bip(4'-COOH)][4Pal][Phe(4-COOH)]G[Pro(cis-4-F)][Trp(βS-Me,4-F)][Aib]SW[d(αMeD)][Ala(pyrimidin-5-yl)]Q[Dab]G[X11]))",16 pM
7,"C[C@@H](c1c[nH]c2cccc(F)c12)[C@@H]1NC(=O)[C@@H]2C[C@H](F)CN2C(=O)CNC(=O)[C@H](Cc2ccc(C(=O)O)cc2)NC(=O)[C@H](Cc2ccncc2)NC(=O)[C@H](Cc2ccc(-c3ccc(C(=O)O)cc3)cc2)NC(=O)[C@H]2[C@@H](Cc3ccncc3)CCN2C(=O)CNC(=O)[C@H](CCN)NC(=O)[C@H](CCC(N)=O)NC(=O)[C@H](Cc2cncnc2)NC(=O)[C@@](C)(CC(=O)O)NC(=O)[C@H](Cc2c[nH]c3ccccc23)NC(=O)[C@H](CO)NC(=O)C(C)(C)NC1=O [Example 328] (cyclo([Bip(4'-COOH)][4Pal][Phe(4-COOH)]G[Pro(cis-4-F)][Trp(βS-Me,4-F)][Aib]SW[d(αMeD)][Ala(pyrimidin-5-yl)]Q[Dab]G[X4]))",8 pM

# Continued, values first:
row,IC50,SMILES
1,9 pM,"C[C@@H](c1c[nH]c2cccc(F)c12)[C@@H]1NC(=O)[C@@H]2C[C@H](F)CN2C(=O)CNC(=O)[C@H](Cc2ccc(C(=O)O)cc2)NC(=O)[C@H](Cc2ccncc2)NC(=O)[C@H](Cc2ccc(-c3ccc(C(=O)O)cc3)cc2)NC(=O)[C@H]2C[C@@H](Cc3ccc(Cl)cc3)CN2C(=O)CNC(=O)[C@H](CCN)NC(=O)[C@H](CCC(N)=O)NC(=O)[C@H](Cc2cncnc2)NC(=O)[C@@](C)(CC(=O)O)NC(=O)[C@H](Cc2c[nH]c3ccccc23)NC(=O)[C@H](CO)NC(=O)C(C)(C)NC1=O [Example 329] (cyclo([Bip(4'-COOH)][4Pal][Phe(4-COOH)]G[Pro(cis-4-F)][Trp(βS-Me,4-F)][Aib]SW[d(αMeD)][Ala(pyrimidin-5-yl)]Q[Dab]G[X20]))"
2,8 pM,"C[C@@H](c1c[nH]c2cccc(F)c12)[C@@H]1NC(=O)[C@@H]2C[C@H](F)CN2C(=O)CNC(=O)[C@H](Cc2ccc(C(=O)O)cc2)NC(=O)[C@H](Cc2ccncc2)NC(=O)[C@H](Cc2ccc(-c3ccc(C(=O)O)cc3)cc2)NC(=O)[C@H]2[C@@H](Cc3ccc(Cl)cc3)CCN2C(=O)CNC(=O)[C@H](CCN)NC(=O)[C@H](CCC(N)=O)NC(=O)[C@H](Cc2cncnc2)NC(=O)[C@@](C)(CC(=O)O)NC(=O)[C@H](Cc2c[nH]c3ccccc23)NC(=O)[C@H](CO)NC(=O)C(C)(C)NC1=O [Example 330] (cyclo([Bip(4'-COOH)][4Pal][Phe(4-COOH)]G[Pro(cis-4-F)][Trp(βS-Me,4-F)][Aib]SW[d(αMeD)][Ala(pyrimidin-5-yl)]Q[Dab]G[X29]))"
3,11 pM,"C[C@@H](c1c[nH]c2cccc(F)c12)[C@@H]1NC(=O)[C@@H]2C[C@H](F)CN2C(=O)CNC(=O)[C@H](Cc2ccc(C(=O)O)cc2)NC(=O)[C@H](Cc2ccncc2)NC(=O)[C@H](Cc2ccc(-c3ccc(C(=O)O)cc3)cc2)NC(=O)[C@H]2[C@@H](Cc3ccc(F)cc3)CCN2C(=O)CNC(=O)[C@H](CCN)NC(=O)[C@H](CCC(N)=O)NC(=O)[C@H](Cc2cncnc2)NC(=O)[C@@](C)(CC(=O)O)NC(=O)[C@H](Cc2c[nH]c3ccccc23)NC(=O)[C@H](CO)NC(=O)C(C)(C)NC1=O [Example 331] (cyclo([Bip(4'-COOH)][4Pal][Phe(4-COOH)]G[Pro(cis-4-F)][Trp(βS-Me,4-F)][Aib]SW[d(αMeD)][Ala(pyrimidin-5-yl)]Q[Dab]G[dPro(3S-(4-F-Bn))]))"
4,13 pM,"C[C@@H](c1c[nH]c2cccc(F)c12)[C@@H]1NC(=O)[C@@H]2C[C@H](F)CN2C(=O)CNC(=O)[C@H](Cc2ccc(C(=O)O)cc2)NC(=O)[C@H](Cc2ccncc2)NC(=O)[C@H](Cc2ccc(-c3ccc(C(=O)O)cc3)cc2)NC(=O)[C@H]2C[C@@H](Cc3ccc(F)cc3)CN2C(=O)CNC(=O)[C@H](CCN)NC(=O)[C@H](CCC(N)=O)NC(=O)[C@H](Cc2ccncn2)NC(=O)[C@@](C)(CC(=O)O)NC(=O)[C@H](Cc2c[nH]c3ccccc23)NC(=O)[C@H](CO)NC(=O)C(C)(C)NC1=O [Example 332] (cyclo([Bip(4'-COOH)][4Pal][Phe(4-COOH)]G[Pro(cis-4-F)][Trp(βS-Me,4-F)][Aib]SW[d(αMeD)][X6]Q[Dab]G[dPro(4R-Bzl(4-F))]))"
5,22 pM,"C[C@@H](c1c[nH]c2cccc(F)c12)[C@@H]1NC(=O)[C@@H]2C[C@H](F)CN2C(=O)CNC(=O)[C@H](Cc2ccc(C(=O)O)cc2)NC(=O)[C@H](Cc2ccncc2)NC(=O)[C@H](Cc2ccc(-c3ccccc3)cc2)NC(=O)[C@H]2C[C@@H](Cc3ccncc3)CN2C(=O)CNC(=O)[C@H](CCN)NC(=O)[C@H](CCC(N)=O)NC(=O)[C@H](Cc2cncnc2)NC(=O)[C@@](C)(CC(=O)O)NC(=O)[C@H](Cc2c[nH]c3ccccc23)NC(=O)[C@H](CO)NC(=O)C(C)(C)NC1=O [Example 333] (cyclo([Bip][4Pal][Phe(4-COOH)]G[Pro(cis-4-F)][Trp(βS-Me,4-F)][Aib]SW[d(αMeD)][Ala(pyrimidin-5-yl)]Q[Dab]G[dPro(4R-(4-pyridylmethyl))]))"
6,22 pM,"C[C@H](O)[C@@H]1NC(=O)[C@@](C)(CC(=O)O)NC(=O)[C@H](Cc2c[nH]c3ccccc23)NC(=O)[C@H](CO)NC(=O)C(C)(C)NC(=O)[C@H]([C@@H](C)c2c[nH]c3cccc(F)c23)NC(=O)[C@@H]2C[C@H](F)CN2C(=O)CNC(=O)[C@H](Cc2ccc(C(=O)O)cc2)NC(=O)[C@H](CC23CC(C2)C3)NC(=O)[C@H](Cc2ccc([C@H]3CC[C@@H](C(=O)O)CC3)cc2)NC(=O)[C@H]2C[C@@H](Cc3ccncc3)CN2C(=O)CNC(=O)[C@H](CCN)NC(=O)[C@H](CCC(N)=O)NC1=O [Example 334] (cyclo([Phe(4-(cis-4-COOH-cHex))][Ala(1-bicyclo(1.1.1)pentyl)][Phe(4-COOH)]G[Pro(cis-4-F)][Trp(βS-Me,4-F)][Aib]SW[d(αMeD)][aThr]Q[Dab]G[dPro(4R-(4-pyridylmethyl))]))"
